Data on one molecule can be found in patent US20140315999A1, “USE OF PROLYL H[…] A RADIOPROTECTIVE DRUG FOR THE LOWER GASTROINTESTINAL TRACT” (priority 2011, published 2014).

Data set [1] in a line: Mortality, GI toxicity and gross intestinal morphology after DMOG injection. It counts as in vivo, male C57Bl/6 mice. Conditions: 8 mg DMOG intraperitoneally, mice.
The subject of the next data set is GI epithelia. The data set can be described thus: FITC-dextran assay of the GI tract (epithelial integrity) after irradiation. It counts as in vivo, mice. Conditions: 20 Gy; gavage 0.6 mg/kg FITC-dextran (4 kD); measured four hours later (FIG. 4). How it is done: FIG. 4 depicts the concentration of FITC-Dextran present in the serum of mice gavaged with 0.6 mg./kg. FITC-Dextran (4 kD) either with or without irradiation and with or without DMOG. Six mice were tested per experimental condition. *p<0.04
Mortality from GI radiotoxicity results from compromised epithelial integrity manifesting as uncontrolled diarrhea or infections from enteric pathogens due to decreased barrier function. To test whether a PHD inhibitor would increase epithelial integrity after radiation insult, a FITC-dextran assay of the GI tract was performed. FITC-dextran cannot cross the GI epithelia, thus its presence in serum is an indication of compromised epithelial integrity. Following irradiation (20 Gy), mice underwent gavage, with the insertion of 0.6 mg/kg of FITC-dextran (4 kD). Four hours later, levels of FITC-dextran were measured in the blood. Treatment with DMOG results in a 3.5-fold decrease in the presence of FITC-dextran in the serum relative to saline control (FIG. 4).

For data set [2], the system named is mice receiving 20 Gy of abdominal radiation. Put plainly: Survival following whole-abdominal irradiation (Kaplan-Meier). Conditions: 20 Gy abdominal radiation, DMOG treatment vs none (FIG. 5). It counts as in vivo. The source says:
FIG. 5 depicts Kaplan-Meier survival analysis of mice following whole-abdominal irradiation (20 Gy) with and without DMOG treatment. p=0.03 (n=12).

Another data set concerns HIF-1. The data set can be described thus: Western blot for HIF-1 in colonic crypts after DMOG injection. It counts as in vivo, male C57Bl/6 mice. Conditions: 8 mg DMOG intraperitoneally; 4-12 after DMOG administration. The method, then: (§1) FIG. 1 depicts a Western blot for HIF-1, HIF-2, and β-actin in colonic crypts at the time points indicated after DMOG injection (8 mg.) Each lane represents a different animal.
(§2) In order to assess the kinetic effects of DMOG on the HIF-1 and HIF-2 protein levels, male C57Bl/6 mice were injected with 8 mg. of DMOG intraperitoneally and colonic crypts were harvested at various time points after injection (FIG. 1). A 8 mg dose results in the elevation of HIF1 and HIF2 proteins 4-12 after DMOG administration as determined by Western blot analysis.

The next data set concerns intestinal stem cells. The data set can be described thus: Microcolony analysis of colon crypt regeneration after 20 Gy abdominal irradiation. The data set is classed as in vivo, mice. The method, then: FIG. 2 is a graphical depiction of the crypts identified in transverse sections of colon stained with hematoxylin-eosin (H & E) after they were treated with saline or DMOG 16 hours before radiation, 4 hours before radiation, and then every 24 hours after receiving 20 Gy of abdominal radiation. The data represents the combined results from 8 mice receiving either DMOG or saline. Sixteen sections were analyzed per mouse. *p<0.006.
FIG. 3 is a graphical depiction of the crypts identified in transverse sections of colon stained with H & E in mice irradiated before administration of DMOG. Mice were treated with saline or DMOG 2 hours after receiving 20 Gy of abdominal radiation and then once every 24 hours thereafter for 4.5 days. x-axis, left bar mice treated with saline, right bar mice treated with DMOG; y-axis regenerated crypts. *p<0.005.
Radio- and chemotoxicity to the GI tract is the result of damage to the intestinal stem cell located within the crypts of Lieberkühn. The intestinal stem cell, defined by its expression of LGR5 is the most rapidly dividing cell in the GI tract and is therefore susceptible to genotoxic damage. […]

The test system of the next data set is HIF-2. Put plainly: Western blot for HIF-2 in colonic crypts after DMOG injection. Conditions: 8 mg DMOG intraperitoneally; 4-12 after DMOG administration. It counts as in vivo, male C57Bl/6 mice. How it is done: as §1, §2
On the technique in general: A western blot detects proteins with antibodies after separation by electrophoresis.

Turning to `COC(=O)CNC(=O)C(=O)OC` [DMOG, N-(methoxyoxoacetyl)-glycine methyl ester], in data set [1], the “gross morphological changes in the intestine” value is on record as “nor was there obvious gross morphological changes in the intestine”. Besides, in data set [1], the “mortality or GI toxicity” value was “no observed increase in mortality or GI toxicity”. Also, the “decrease in FITC-dextran in the serum relative to saline control” value in the data set on GI epithelia is on record as 3.5 fold. Moreover, the overall survival result in data set [2] is reported as “dramatically improved”. In addition, the “HIF1 protein level in colonic crypts (Western blot)” value in the data set with HIF-1 is “elevation”. In addition, the “enrichment in regenerative capacity of colon relative to saline alone (regenerated crypts)” value turned out to be 2 fold in the data set with intestinal stem cells (8 mg DMOG prior to 20 Gy whole-abdomen irradiation, then daily, sacrifice 4.5 days post irradiation (FIG. 2)) and 2 fold in the data set with intestinal stem cells (DMOG administered after 20 Gy whole-abdomen irradiation (2 hours after, then every 24 hours), 4.5 days (FIG. 3)). The “HIF2 protein level in colonic crypts (Western blot)” value in the data set on HIF-2 is listed as “elevation”.
